Where two headings read alike, the source gives them in different places.
Structure (SMILES): C=C1C(=O)O[C@H]2[C@H]1CC/C(COC(=O)c1cc3ccccc3[nH]1)=C\CC[C@@]1(C)O[C@@H]21 [BS-1-28]
- CC50 (MDA-MB-231/ATCC): 8560 nM
- Percent Growth (MDA-MB-231/ATCC; MDA-MB-231/ATCC, Log10 Concentration −4.0): −73%
- Percent Growth (MDA-MB-231/ATCC; MDA-MB-231/ATCC, Log10 Concentration −5.0): −58%
- Percent Growth (MDA-MB-231/ATCC; MDA-MB-231/ATCC, Log10 Concentration −6.0): 56%
- Percent Growth (MDA-MB-231/ATCC; MDA-MB-231/ATCC, Log10 Concentration −7.0): 87%
- Percent Growth (MDA-MB-231/ATCC; MDA-MB-231/ATCC, Log10 Concentration −8.0): 89%
- GI50 (MDA-MB-231/ATCC; MDA-MB-231/ATCC, NCI five dose): 1140 nM
- TGI (MDA-MB-231/ATCC; MDA-MB-231/ATCC, NCI five dose): 3.12E−6
- CC50 (U251): 8680 nM
- Percent Growth (U251; U251, Log10 Concentration −4.0): −74%
- Percent Growth (U251; U251, Log10 Concentration −5.0): −59%
- Percent Growth (U251; U251, Log10 Concentration −6.0): 92%
- Percent Growth (U251; U251, Log10 Concentration −7.0): 96%
- Percent Growth (U251; U251, Log10 Concentration −8.0): 98%
- GI50 (U251; U251, NCI five dose): 1690 nM
- TGI (U251; U251, NCI five dose): 4.06E−6
- CC50 (BT-549): 2640 nM
- Percent Growth (BT-549; BT-549, Log10 Concentration −4.0): −99%
- Percent Growth (BT-549; BT-549, Log10 Concentration −5.0): −88%
- Percent Growth (BT-549; BT-549, Log10 Concentration −6.0): −22%
- Percent Growth (BT-549; BT-549, Log10 Concentration −7.0): 14%
- Percent Growth (BT-549; BT-549, Log10 Concentration −8.0): −30%
- GI50 (BT-549; BT-549, NCI five dose): < 10 nM
- GI50 (BT-549; BT-549 breast cancer cell line): < 10 nM
- CC50 (SK-MEL-2): 7830 nM
- Percent Growth (SK-MEL-2; SK-MEL-2, Log10 Concentration −4.0): −88%
- Percent Growth (SK-MEL-2; SK-MEL-2, Log10 Concentration −5.0): −67%
- Percent Growth (SK-MEL-2; SK-MEL-2, Log10 Concentration −6.0): 96%
- Percent Growth (SK-MEL-2; SK-MEL-2, Log10 Concentration −7.0): 113%
- Percent Growth (SK-MEL-2; SK-MEL-2, Log10 Concentration −8.0): 103%
- GI50 (SK-MEL-2; SK-MEL-2, NCI five dose): 1920 nM
- TGI (SK-MEL-2; SK-MEL-2, NCI five dose): 3.88E−6

Reference: patent US9920063B2, “Melampomagnolide B derivatives” (Board of Trustees of the University of Arkansas, priority 2013, dated 2018)
